One assay deals with NEP. Briefly: Immunoblot of NEP in brains of APP23 mice. As to conditions: Am80 0.5 and/or HX630 5 mg/kg/d, day 18, vs vehicle-treated mice. The assay is classed as in vivo, mouse. On the procedure: APP23 mice begin forming amyloid deposits when they are 6 months old, but memory deficits in the MWM test appear quite early (before 3 months of age). Here, we used 8.5-month-old male APP23 mice and their WT littermates (C57BL/6J). We used stratified random sampling to divide mice (four to six per cage) into four groups to equalize the mean body weight of the study groups: mice given 0.5 mg/kg/d Am80, those given 5 mg/kg/d HX630, those given the mixture of 0.5 mg/kg/d Am80 and 5 mg/kg/d HX630, and those given the vehicle. Am80 and HX630 were suspended in 0.5% (w/v) carboxymethylcellulose solution and were orally administered to mice at 0.5 mg/kg (Am80) or 5 mg/kg (HX630) for 17 consecutive days (once daily at 18:00). Control animals received the same volume of 0.5% (w/v) carboxymethylcellulose solution orally, without the other compounds. We set the 0.5 mg/kg/d dose for Am80 on the basis that this had been found effective in other in vivo studies, such as those by Kawahara et al. and Ishido and Shudo [37]. Higher doses of Am80 (3 mg/kg/d and 6 mg/kg/d) were also orally administered to mice for 17 consecutive days. Animals were weighed once a week. Mice were subjected to behavioral testing on days 15-18 of the first oral administration of the compounds (at 19:00-23:00). On days 15-17 (not day 18), animals received the compounds at 24:00, after behavioral testing. […]

In another assay the test system is APP23 mice. Briefly: Morris water maze (MWM) test. Type of assay: in vivo, mouse. As to conditions: 8.5-month-old male APP23 mice; for acquisition of spatial learning (escape latency) in the MWM test: oral Am80 0.5 mg/kg and/or HX630 5 mg/kg for 17 days, vs vehicle-treated APP23 mice. On the procedure: Hemizygous APP23 mice, which overexpress human-type AβPP carrying the double mutation K670N/M671L, were produced and bred as previously described. Only male mice were analyzed. Wistar rats were obtained from Kyudo Co., Ltd. (Kumamoto, Japan). Animals were housed in standard mouse cages under standard laboratory conditions: food and water available ad libitum, constant room temperature and humidity, and a 12 h light/12 h dark cycle (light on from 08:00 to 20:00). These animal experiments were conducted according to the guidelines of the Ministry of Education, Culture, Sports, Science, and Technology of Japan, and were approved by the Institutional Animal Care and Use Committee of Kumamoto University (#B25-133).
APP23 mice begin forming amyloid deposits when they are 6 months old, but memory deficits in the MWM test appear quite early (before 3 months of age). Here, we used 8.5-month-old male APP23 mice and their WT littermates (C57BL/6J). We used stratified random sampling to divide mice (four to six per cage) into four groups to equalize the mean body weight of the study groups: mice given 0.5 mg/kg/d Am80, those given 5 mg/kg/d HX630, those given the mixture of 0.5 mg/kg/d Am80 and 5 mg/kg/d HX630, and those given the vehicle. Am80 and HX630 were suspended in 0.5% (w/v) carboxymethylcellulose solution and were orally administered to mice at 0.5 mg/kg (Am80) or 5 mg/kg (HX630) for 17 consecutive days (once daily at 18:00). Control animals received the same volume of 0.5% (w/v) carboxymethylcellulose solution orally, without the other compounds. […]
The MWM test was performed as described previously. […] During both acquisition and probe trials, the routes of the mice were recorded by means of a computerized video tracking system (CompACT VAS; Muromachi Kikai Co. Ltd., Tokyo, Japan). Training trials measured the time it took for a mouse to find the escape platform. Probe trials determined the percent time spent in each quadrant of the maze. […]

In assay [1] the test system is RA response element (RARE). Briefly: RARE luciferase reporter gene assay in MG5 cells. The assay is classed as cell-based, mouse. As to conditions: pGL3-RARE-Luc; 5 μM each, 24 h; fold induction relative to vehicle-treated cells. On the procedure:
MG5 cells (2×10^6 cells in 100 μl) were transfected by electroporation with 1.0 μg of pGL3-RARE-Luc (#13458; Addgene) or pGL3-Luc vector (Promega) and 0.25 μg of Renilla luciferase vector (phRL-TK) (Promega), using the Nucleofector transfection system (program #D-032; Amaxa) according to the manufacturer's protocol, taken up in the medium, and seeded in 48-well plates (1.25×10^5 cells/well). For some experiments, cells were transfected with 1.0 μg of pGL3-RARE-Luc or pGL3-Luc vector and 0.25 μg of phRL-TK in the presence of 0.25 μg each of pcDNA3.1-RAR (#16287; Addgene) and pcDNA3.1-RXR (#8882; Addgene). An empty pcDNA3.1 expression vector was used to maintain equal amounts of DNA for each transfection. Five hours after transfection, the cells were exposed to Am80 (5 μM) and/or HX630 (5 μM) in the medium for 24 h. Luciferase activities were determined in cell lysates. Firefly luciferase activity was normalized to that of Renilla luciferase for each well.

This is an account of results in patent publication US9861640B2, “Medicament for treatment of Alzheimer's disease” (KEMPHYS LTD., priority 2013, dated 2018).

Take `CC1(C)CCC(C)(C)c2cc(NC(=O)c3ccc(C(=O)O)cc3)ccc21` [Am80, 4-{(5,6,7,8-tetrahydro-5,5,8,8-tetramethyl-2-naphthalenyl)carbamoyl}benzoic acid]: the “NEP protein level in brain (immunoblot)” value in the assay with NEP is listed as “Higher levels”. The “acquisition of spatial learning (escape latency) in the MWM test” value in the assay with APP23 mice is listed as “No significant difference”. Moreover, the “memory deficits in APP23 mice (MWM)” value with APP23 mice (oral Am80 0.5 mg/kg and/or HX630 5 mg/kg, 17 days) was “did not ameliorate memory deficits”. Moreover, the “RARE reporter activity in MG5 cells” value in assay [1] worked out at 4.3 fold.
As to `CN1c2ccccc2N=C(c2ccc(C(=O)O)cc2)c2cc3c(cc21)C(C)(C)CCC3(C)C` [HX630, 4-[5H-2,3-(2,5dimethyl-2,5-hexano)-5-methyldibenzo[b,e]-diazepin-11-yl]benzoic acid], in the assay on NEP, the “NEP protein level in brain (immunoblot)” value is recorded as “Higher levels”. The “acquisition of spatial learning (escape latency) in the MWM test” value in the assay with APP23 mice is “No significant difference”. Further, the “RARE reporter activity in MG5 cells” value in assay [1] was “no increase”.
